Results reported in publication PMC10066365, “Nemacol is a small molecule inhibitor of C. elegans vesicular acetylcholine transporter with anthelmintic potential” (Nature Communications, 2023).
Values joined by “and” are separate entries in the source; they are usually repeats but may differ in a detail not shown here. Identical values can stand only once.

What was measured:
C. elegans = C. elegans motor phenotype scoring on solid media (Punc/jerky-unc, coiled, paralyzed), wild-type young adults; assay type: in vivo, Caenorhabditis elegans; conditions: for atypical locomotion (number of animals) / coiled (number of animals) / no phene (number of animals) / paralyzed (number of animals): young adults, 20 animals per trial, single replicate counts; for Fraction Coiled / Fraction Jerky-Unc / Fraction No Phenotype / Fraction Parayzed / Fraction Coiled, Averages of 3 biological repeats / Fraction Jerky-Unc, Averages of 3 biological repeats / Fraction No Phenotype, Averages of 3 biological repeats / Fraction Parayzed, Averages of 3 biological repeats / C1 (loose coil) worm count / C2 (tight coil) worm count / J (jerky-unc) worm count / NP (no phene) worm count / P (paralyzed) worm count: 60 min; for rep 1 atypical locomotion / rep 1 coiled / rep 1 no phene / rep 1 paralyzed: N2, count of 20 animals
Pristionchus pacificus = Pristionchus pacificus motor disruption dose-response on solid media, 1 h; conditions: for mean % any phene (coiled, jerky-Unc or paralyzed): Pristionchus pacificus young adults, mean of three biological replicates; for rep 1 atypical locomotion / rep 1 coiled / rep 1 no phene / rep 1 paralyzed: count of 20 animals per trial, one hour
[1] = 15 µM, N2 adult worms, Averages of 3 biological repeats
[2] = 15 µM, N2 adult worms, Bio Rep 1
[3] = 15 µM, N2 adult worms, Bio Rep 3
[4] = 15 µM, N2 adult worms, Bio rep 2
[5] = 30 µM, N2 adult worms, Averages of 3 biological repeats
[6] = 30 µM, N2 adult worms, Bio Rep 1
[7] = 30 µM, N2 adult worms, Bio Rep 3
[8] = 30 µM, N2 adult worms, Bio rep 2
[9] = 60 µM, N2 adult worms, Averages of 3 biological repeats
[10] = 60 µM, N2 adult worms, Bio Rep 1
[11] = 60 µM, N2 adult worms, Bio Rep 3
[12] = 60 µM, N2 adult worms, Bio rep 2
[13] = N2, 15 µM, adult worms, average of 3 biological repeats
[14] = N2, 30 µM, adult worms, average of 3 biological repeats
[15] = N2, 60 µM, adult worms, average of 3 biological repeats
[16] = N2 series 1 (run with e245, md414), 15 µM
[17] = N2 series 1 (run with e245, md414), 15 µM, single Bio Rep
[18] = N2 series 1 (run with e245, md414), 30 µM
[19] = N2 series 1 (run with e245, md414), 30 µM, single Bio Rep
[20] = N2 series 1 (run with e245, md414), 60 µM
[21] = N2 series 1 (run with e245, md414), 60 µM, single Bio Rep
[22] = N2 series 2 (run with e327), 15 µM
[23] = N2 series 2 (run with e327), 15 µM, single Bio Rep
[24] = N2 series 2 (run with e327), 30 µM
[25] = N2 series 2 (run with e327), 30 µM, single Bio Rep
[26] = N2 series 2 (run with e327), 60 µM
[27] = N2 series 2 (run with e327), 60 µM, single Bio Rep

Q: What does the source list for `O=[N+]([O-])c1ccc(N2CCN(CC3CCCCC3)CC2)cc1` [Nemacol-1]?
A: atypical locomotion (number of animals) (C. elegans; 3.75uM, one hour): 9 and 12 and 2 and 3 and 11; coiled (number of animals) (C. elegans; 3.75uM, one hour): 0 and 2 and 1; no phene (number of animals) (C. elegans; 3.75uM, one hour): 11 and 8 and 16 and 17 and 9; paralyzed (number of animals) (C. elegans; 3.75uM, one hour): 0; Fraction Coiled (C. elegans; [1]): 0.15; Fraction Jerky-Unc (C. elegans; [1]): 0.69; Fraction No Phenotype (C. elegans; [1]): 0.15; Fraction Parayzed (C. elegans; [1]): 0.0185; Fraction Coiled (C. elegans; [2]): 0.17; Fraction Jerky-Unc (C. elegans; [2]): 0.6111; Fraction No Phenotype (C. elegans; [2]): 0.22; Fraction Parayzed (C. elegans; [2]): 0; Fraction Coiled (C. elegans; [3]): 0.11; Fraction Jerky-Unc (C. elegans; [3]): 0.8333; Fraction No Phenotype (C. elegans; [3]): 0.0556; Fraction Parayzed (C. elegans; [3]): 0; Fraction Coiled (C. elegans; [4]): 0.17; Fraction Jerky-Unc (C. elegans; [4]): 0.6111; Fraction No Phenotype (C. elegans; [4]): 0.17; Fraction Parayzed (C. elegans; [4]): 0.05556; any phene, mean % fraction of young adults exhibiting any phenotype (coiled, jerky-Unc or paralyzed) (C. elegans; 15uM, one hour, mean of three biological replicates): 91.0317%; atypical locomotion (number of animals) (C. elegans; 15uM, one hour): 6 and 4 and 7 and 5 and 12 and 16; coiled (number of animals) (C. elegans; 15uM, one hour): 5 and 8 and 13 and 4; no phene (number of animals) (C. elegans; 15uM, one hour): 0 and 5 and 2 and 4; paralyzed (number of animals) (C. elegans; 15uM, one hour): 9 and 11 and 1 and 0; Fraction Coiled (C. elegans; [5]): 0.46; Fraction Jerky-Unc (C. elegans; [5]): 0.31; Fraction No Phenotype (C. elegans; [5]): 0.00; Fraction Parayzed (C. elegans; [5]): 0.23; Fraction Coiled (C. elegans; [6]): 0.61; Fraction Jerky-Unc (C. elegans; [6]): 0.2222; Fraction No Phenotype (C. elegans; [6]): 0.00; Fraction Parayzed (C. elegans; [6]): 0.1667; Fraction Coiled (C. elegans; [7]): 0.41; Fraction Jerky-Unc (C. elegans; [7]): 0.3529; Fraction No Phenotype (C. elegans; [7]): 0.00; Fraction Parayzed (C. elegans; [7]): 0.2353; Fraction Coiled (C. elegans; [8]): 0.35; Fraction Jerky-Unc (C. elegans; [8]): 0.3529; Fraction No Phenotype (C. elegans; [8]): 0.00; Fraction Parayzed (C. elegans; [8]): 0.2941; Fraction Coiled (C. elegans; [9]): 0.60; Fraction Jerky-Unc (C. elegans; [9]): 0.10; Fraction No Phenotype (C. elegans; [9]): 0.00; Fraction Parayzed (C. elegans; [9]): 0.29; Fraction Coiled (C. elegans; [10]): 0.69; Fraction Jerky-Unc (C. elegans; [10]): 0.125; Fraction No Phenotype (C. elegans; [10]): 0.00; Fraction Parayzed (C. elegans; [10]): 0.1875; Fraction Coiled (C. elegans; [11]): 0.56; Fraction Jerky-Unc (C. elegans; [11]): 0.1111; Fraction No Phenotype (C. elegans; [11]): 0.00; Fraction Parayzed (C. elegans; [11]): 0.3333; Fraction Coiled (C. elegans; [12]): 0.57; Fraction Jerky-Unc (C. elegans; [12]): 0.07143; Fraction No Phenotype (C. elegans; [12]): 0.00; Fraction Parayzed (C. elegans; [12]): 0.3571; atypical locomotion (number of animals) (C. elegans; 60uM, one hour): 2 and 1 and 4; coiled (number of animals) (C. elegans; 60uM, one hour): 7 and 11 and 17 and 19 and 12 and 8; no phene (number of animals) (C. elegans; 60uM, one hour): 0; paralyzed (number of animals) (C. elegans; 60uM, one hour): 11 and 7 and 1 and 0 and 6 and 8; motor defects after 24 h on compound (C. elegans; 24 h): no longer have obvious motor defects; EC50 (C. elegans; Caenorhabditis elegans, 1 h, read-out: C. elegans - motor disruption EC50): 7.1 µM; Fraction Coiled (C. elegans; [13]): 0.15; Fraction Jerky-Unc (C. elegans; [13]): 0.69; Fraction No Phenotype (C. elegans; [13]): 0.15; Fraction Parayzed (C. elegans; [13]): 0.0185; Fraction Coiled (C. elegans; [14]): 0.46; Fraction Jerky-Unc (C. elegans; [14]): 0.31; Fraction No Phenotype (C. elegans; [14]): 0.00; Fraction Parayzed (C. elegans; [14]): 0.23; Fraction Coiled (C. elegans; [15]): 0.60; Fraction Jerky-Unc (C. elegans; [15]): 0.10; Fraction No Phenotype (C. elegans; [15]): 0.00; Fraction Parayzed (C. elegans; [15]): 0.29; rep 1 atypical locomotion (C. elegans; conc 3.75): 3; rep 1 coiled (C. elegans; conc 3.75): 2; rep 1 no phene (C. elegans; conc 3.75): 15; rep 1 paralyzed (C. elegans; conc 3.75): 0; rep 1 atypical locomotion (C. elegans; conc 15): 3; rep 1 coiled (C. elegans; conc 15): 4; rep 1 no phene (C. elegans; conc 15): 7; rep 1 paralyzed (C. elegans; conc 15): 6; rep 1 atypical locomotion (C. elegans; conc 60): 2; rep 1 coiled (C. elegans; conc 60): 3; rep 1 no phene (C. elegans; conc 60): 0; rep 1 paralyzed (C. elegans; conc 60): 15; Fraction Coiled, Averages of 3 biological repeats (C. elegans; [16]): 0.26; Fraction Jerky-Unc, Averages of 3 biological repeats (C. elegans; [16]): 0.67; Fraction No Phenotype, Averages of 3 biological repeats (C. elegans; [16]): 0.037; Fraction Parayzed, Averages of 3 biological repeats (C. elegans; [16]): 0.037; C1 (loose coil) worm count (C. elegans; [17]): 1 and 2; C2 (tight coil) worm count (C. elegans; [17]): 3 and 4; Fraction Coiled (C. elegans; [17]): 0.28 and 0.22; Fraction Jerky-Unc (C. elegans; [17]): 0.6111 and 0.7222 and 0.6667; J (jerky-unc) worm count (C. elegans; [17]): 13 and 11 and 12; Fraction Coiled, Averages of 3 biological repeats (C. elegans; [18]): 0.59; Fraction Jerky-Unc, Averages of 3 biological repeats (C. elegans; [18]): 0.28; Fraction No Phenotype, Averages of 3 biological repeats (C. elegans; [18]): 0.00; Fraction Parayzed, Averages of 3 biological repeats (C. elegans; [18]): 0.13; C1 (loose coil) worm count (C. elegans; [19]): 5; C2 (tight coil) worm count (C. elegans; [19]): 5 and 7; Fraction Coiled (C. elegans; [19]): 0.56 and 0.67; Fraction Jerky-Unc (C. elegans; [19]): 0.1667 and 0.3333; Fraction No Phenotype (C. elegans; [19]): 0.00; J (jerky-unc) worm count (C. elegans; [19]): 6 and 3; NP (no phene) worm count (C. elegans; [19]): 0; Fraction Coiled, Averages of 3 biological repeats (C. elegans; [20]): 0.64; Fraction Jerky-Unc, Averages of 3 biological repeats (C. elegans; [20]): 0.11; Fraction No Phenotype, Averages of 3 biological repeats (C. elegans; [20]): 0.00; Fraction Parayzed, Averages of 3 biological repeats (C. elegans; [20]): 0.25; C1 (loose coil) worm count (C. elegans; [21]): 3 and 4; C2 (tight coil) worm count (C. elegans; [21]): 6 and 8; Fraction Coiled (C. elegans; [21]): 0.67 and 0.60; Fraction No Phenotype (C. elegans; [21]): 0.00; NP (no phene) worm count (C. elegans; [21]): 0; Fraction Coiled, Averages of 3 biological repeats (C. elegans; [22]): 0.20; Fraction Jerky-Unc, Averages of 3 biological repeats (C. elegans; [22]): 0.69; Fraction No Phenotype, Averages of 3 biological repeats (C. elegans; [22]): 0.11; Fraction Parayzed, Averages of 3 biological repeats (C. elegans; [22]): 0.00; C2 (tight coil) worm count (C. elegans; [23]): 3 and 2; Fraction Jerky-Unc (C. elegans; [23]): 0.7778 and 0.6667 and 0.6316; Fraction No Phenotype (C. elegans; [23]): 0.11; Fraction Parayzed (C. elegans; [23]): 0; J (jerky-unc) worm count (C. elegans; [23]): 12 and 14; NP (no phene) worm count (C. elegans; [23]): 2; P (paralyzed) worm count (C. elegans; [23]): 0; Fraction Coiled, Averages of 3 biological repeats (C. elegans; [24]): 0.49; Fraction Jerky-Unc, Averages of 3 biological repeats (C. elegans; [24]): 0.36; Fraction No Phenotype, Averages of 3 biological repeats (C. elegans; [24]): 0.00; Fraction Parayzed, Averages of 3 biological repeats (C. elegans; [24]): 0.15; C2 (tight coil) worm count (C. elegans; [25]): 4 and 7 and 6; Fraction No Phenotype (C. elegans; [25]): 0.00; NP (no phene) worm count (C. elegans; [25]): 0; Fraction Coiled, Averages of 3 biological repeats (C. elegans; [26]): 0.57; Fraction Jerky-Unc, Averages of 3 biological repeats (C. elegans; [26]): 0.11; Fraction No Phenotype, Averages of 3 biological repeats (C. elegans; [26]): 0.00; Fraction Parayzed, Averages of 3 biological repeats (C. elegans; [26]): 0.32; C1 (loose coil) worm count (C. elegans; [27]): 3 and 4; Fraction Coiled (C. elegans; [27]): 0.58 and 0.41 and 0.72; Fraction No Phenotype (C. elegans; [27]): 0.00; Fraction Parayzed (C. elegans; [27]): 0.3158 and 0.3529 and 0.2778; NP (no phene) worm count (C. elegans; [27]): 0; P (paralyzed) worm count (C. elegans; [27]): 6 and 5; fold difference in C. elegans EC50, Vesamicol vs Nemacol-1 (C. elegans; Vesamicol EC50 higher, Nemacol-1 more potent): 5.4 fold; mean % any phene (coiled, jerky-Unc or paralyzed) (Pristionchus pacificus; conc 3.75, observed at one hour): 0%; mean % any phene (coiled, jerky-Unc or paralyzed) (Pristionchus pacificus; conc 15, observed at one hour): 56.6667%; mean % any phene (coiled, jerky-Unc or paralyzed) (Pristionchus pacificus; conc 60, observed at one hour): 100%; EC50 (Pristionchus pacificus; Pristionchus pacificus, 1 h, read-out: P. pacificus motor disruption EC50): 14.1 ± 2.9 µM; rep 1 atypical locomotion (Pristionchus pacificus; conc 3.75): 4; rep 1 coiled (Pristionchus pacificus; conc 3.75): 1; rep 1 no phene (Pristionchus pacificus; conc 3.75): 15; rep 1 paralyzed (Pristionchus pacificus; conc 3.75): 0; rep 1 atypical locomotion (Pristionchus pacificus; conc 15): 13; rep 1 coiled (Pristionchus pacificus; conc 15): 1; rep 1 no phene (Pristionchus pacificus; conc 15): 6; rep 1 paralyzed (Pristionchus pacificus; conc 15): 0; rep 1 atypical locomotion (Pristionchus pacificus; conc 60): 0; rep 1 coiled (Pristionchus pacificus; conc 60): 2; rep 1 no phene (Pristionchus pacificus; conc 60): 0; rep 1 paralyzed (Pristionchus pacificus; conc 60): 18
